# pEC50: −log10 of the molar value.
# Molecular target: T1, human GLP-1 receptor (Homo sapiens, UniProt P43220)
# T1 construct: expressed in transfected cells
# Assay: GLP-1R cAMP assay (cAMP accumulation in CHO cells stably overexpressing the human GLP-1 receptor, HitHunter kit)
# Assay type: cell-based
# Details: CHO cells stably overexpressing human GLP-1R, 30 min, 20-point dose response in triplicate
# Description: CAMP accumulation was measured in Chinese hamster ovary (CHO) cells (10,000 cells/well) stably overexpressing the human GLP-1 receptor using the HitHunter CAMP Assay for Small Molecules Kit (Eurofins). Briefly, cells were grown in Ham's F12 Nutrient Mix with 10% FBS, and lifted with Cell Dissociation Buffer, Enzyme free, PBS based (ThermoFisher). Cells were pelleted, and resuspended in Hank's buffered saline solution with 10 mM HEPES, and 625 μM 3-isobutyl-1-methylxanthine. The anti-cAMP antibody reagent was then added to cells at a 1:2 ratio and 5 μL of mixture was seeded in 384-well small volume white assay plates, at 10,000 cells/well. Cells were then treated with 50 nL compound using an ECHO 550 acoustic dispenser (Labcyte) in a 20-point dose response format in triplicate for 30 min. Cells were then lysed, and detection reagents added according to the manufacturer's protocol. After overnight incubation, luminescence was measured using a Perkin Elmer Envision plate reader. Dose response curves were analyzed using GraphPad Prism 9.0.
# In the Table, EC50 values are designated as follows: • A: 0 nM<EC50<0.1 nM; • B: 0.1 nM≤EC50<1.0 nM; • C: 1.0 nM≤EC50<10.0 nM; • D: 10.0 nM≤EC50<100 nM; • E: 100 nM≤EC50<500 nM; and • F: ≥500 nM
# T1 sequence (P43220 24-463): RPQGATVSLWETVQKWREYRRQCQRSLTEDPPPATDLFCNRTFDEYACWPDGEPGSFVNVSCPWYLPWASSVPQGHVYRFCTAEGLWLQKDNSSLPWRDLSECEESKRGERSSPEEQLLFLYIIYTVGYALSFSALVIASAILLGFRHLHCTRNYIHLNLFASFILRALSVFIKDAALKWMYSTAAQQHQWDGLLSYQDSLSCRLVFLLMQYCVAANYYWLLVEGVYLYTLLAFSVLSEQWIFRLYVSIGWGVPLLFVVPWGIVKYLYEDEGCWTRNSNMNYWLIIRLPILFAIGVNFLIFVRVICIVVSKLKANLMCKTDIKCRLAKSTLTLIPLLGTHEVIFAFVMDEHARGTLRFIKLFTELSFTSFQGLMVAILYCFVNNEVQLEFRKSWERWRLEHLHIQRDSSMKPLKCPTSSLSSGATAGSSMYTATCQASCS
row,SMILES,pEC50
1,"C[C@H]1C[C@@H](Oc2ccnc(COc3ncc(C#N)cc3F)n2)CCN1Cc1nc2c(F)cc(C(=O)O)cc2n1CCOCC(F)(F)F [Compound 636, 2-(((2S,4S)-4-((2-(((5-cyano-3-fluoropyridin-2-yl)oxy)methyl)pyrimidin-4-yl)oxy)-2-methylpiperidin-1-yl)methyl)-4-fluoro-1-(2-(2,2,2-trifluoroethoxy)ethyl)-1H-benzo[d]imidazole-6-carboxylic acid]",9.00 to 10.00
2,"C[C@H]1C[C@@H](Oc2ccnc(COc3ncc(C#N)cc3F)n2)CCN1Cc1nc2ccc(C(=O)O)cc2n1C[C@@H]1CCCO1 [Compound 631, 2-(((2S,4S)-4-((2-(((5-cyano-3-fluoropyridin-2-yl)oxy)methyl)pyrimidin-4-yl)oxy)-2-methylpiperidin-1-yl)methyl)-1-(((S)-tetrahydrofuran-2-yl)methyl)-1H-benzo[d]imidazole-6-carboxylic acid]",9.00 to 10.00
3,"N#Cc1ccc(OCc2nccc(OC3CCN(Cc4nc5cnc(C(=O)O)cc5n4C[C@@H]4CCO4)CC3)n2)c(F)c1 [Compound 580, 2-{[4-({2-[(4-Cyano-2-fluorophenoxy)methyl]pyrimidin-4-yl}oxy)piperidin-1-yl]methyl}-1-{[(2S)-oxetan-2-yl]methyl}-1H-imidazo[4,5-c]pyridine-6-carboxylic acid]",8.00 to 9.00
4,"C[C@H]1C[C@@H](Oc2ccnc(COc3ncc(Cl)cc3F)n2)CCN1Cc1nc2ccc(C(=O)O)cc2n1CCOCC(F)(F)F [Compound 595, 2-{[(2S,4S)-4-[(2-{[(5-chloro-3-fluoropyridin-2-yl)oxy]methyl}pyrimidin-4-yl)oxy]-2-methylpiperidin-1-yl]methyl}-1-[2-(2,2,2-trifluoroethoxy)ethyl]-1H-1,3-benzodiazole-6-carboxylic acid]",9.00 to 10.00
5,"C[C@H]1C[C@@H](Oc2ccnc(COc3ccc(F)cc3C#N)n2)CCN1Cc1nc2cnc(C(=O)O)cc2n1C[C@@H]1CCO1 [Compound 574, 2-{[(2S,4S)-4-({2-[(2-cyano-4-fluorophenoxy)methyl]pyrimidin-4-yl}oxy)-2-methylpiperidin-1-yl]methyl}-1-{[(2S)-oxetan-2-yl]methyl}-1H-imidazo[4,5-c]pyridine-6-carboxylic acid]",8.00 to 9.00
6,"C[C@H]1C[C@@H](Oc2ccnc(COc3ccc(F)cc3F)n2)CCN1Cc1nc2ccc(CCC(=O)O)cc2n1C[C@@H]1CCO1 [Compound 623, 3-(2-(((2S,4S)-4-((2-((2,4-difluorophenoxy)methyl)pyrimidin-4-yl)oxy)-2-methylpiperidin-1-yl)methyl)-1-(((S)-oxetan-2-yl)methyl)-1H-benzo[d]imidazol-6-yl) propanoic acid]",8.00 to 9.00
7,"C[C@H]1C[C@@H](Oc2ccnc(COc3ccc(F)cc3F)n2)CCN1Cc1nc2ccc(C(=O)O)cc2n1C[C@H]1CCS1(=O)=O [Compound 610, 2-(((2S,4S)-4-((2-((2,4-difluorophenoxy)methyl)pyrimidin-4-yl)oxy)-2-methylpiperidin-1-yl)methyl)-1-(((R)-1,1-dioxidothietan-2-yl)methyl)-1H-benzo[d]imidazole-6-carboxylic acid]",9.00 to 10.00
8,"O=C(O)c1ccc2nc(CN3CC[C@H](Oc4ccnc(COc5ccc(Cl)cc5F)c4)C[C@@H]3CF)n(C[C@@H]3CCO3)c2c1 [Compound 555, 2-(((2R,4S)-4-((2-((4-Chloro-2-fluorophenoxy)methyl)pyridin-4-yl)oxy)-2-(fluoromethyl)piperidin-1-yl)methyl)-1-(((S)-oxetan-2-yl)methyl)-1H-benzo[d]imidazole-6-carboxylic acid]",> 10.00
9,"C[C@H]1C[C@@H](Oc2ccnc(COc3ncc(F)cc3C#N)n2)CCN1Cc1nc2c(F)cc(C(=O)O)cc2n1C[C@@H]1CCO1 [Compound 629, 2-(((2S,4S)-4-((2-(((3-cyano-5-fluoropyridin-2-yl)oxy)methyl)pyrimidin-4-yl)oxy)-2-methylpiperidin-1-yl)methyl)-4-fluoro-1-(((S)-oxetan-2-yl)methyl)-1H-benzo[d]imidazole-6-carboxylic acid]",> 10.00

# From patent US20260317309A1, “N-HETEROCYLIC GPCR RECEPTOR AGONISTS, PHARMACEUTICAL COMPOSITIONS COMPRISING THE SAME, AND METHODS FOR THEIR USE” (Carmot Therapeutics, Inc., priority 2022, published 2026)
